Experimental data published in US6528685B2 (Teva Pharmaceutical Industries, Ltd., priority 1994, dated 2003).
Where a name gives a salt, the structure may show the parent alone. Each block holds one compound with its values, some of them ahead of it.

Legend:
mice [1] = assay: Maximal electroshock (MES) model, mice; conditions: mice; for MICE MES ED50: intraperitoneal (i.p.) administration
rats [2] = assay: Neurotoxicity in rats, positional sense test and gait stance test; conditions: rats p.o.; positional sense test and gait stance test
Protocol: (§1) Neurotoxicity of the claimed agents was also assessed in mice (i.p. administration) by the rotorod ataxia test and/or in rats (p.o. administration) by positional sense test and gait stance test. […] The term quantitating the neurotoxicity is the medial neurological toxic dose (TD50), was determined in the above tests.

mice [3] = assay: Neurotoxicity in mice, rotorod ataxia test; conditions: mice i.p.; rotorod ataxia test
Protocol: as §1

rats [4] = assay: Maximal electroshock (MES) model, rats; conditions: rats, oral (p.o.) administration; median effective dose
male ICR albino mice = assay: Hypobaric hypoxic model in mice, survival time; type: in vivo, mouse
Protocol: Desiccator B was disconnected and allowed to equilibrate with room air whilst desiccator A was evacuated to a pressure of 100 mmHg. […] The survival time from the moment of induction of hypoxia to the time of cessation of respiration was recorded for each mouse for a maximum of 15 minutes after which time room air was reintroduced to desiccator B. Survivors were monitored for signs of lethargy or vitality.
Effect of drug treatment was assessed as the percent of the survival time of the drug treated group with respect to the saline injected or vehicle injected control group. Control groups were run twice, before and after each experimental group and consisted of 12-16 mice in groups of 4 mice. Each experimental group always consisted of 4 mice to ensure a constant residual volume of oxygen in all tests. The effect of each dose of test drug was determined in duplicate i.e. two groups of 4 mice.
All drugs were administered intra-peritoneally at the dose indicated one hour prior to exposure to hypoxia.

mongolian gerbils = assay: Global brain ischemia in gerbils; type: in vivo, mongolian gerbil; conditions: 3 injections, fraction of hippocampi protected from ischemia, 14 days post-ischemia
Protocol: Male mongolian gerbils, aged 2.5-5 months, housed 4-8 in a cage, were supplied freely with food and water and maintained at 24° C. with a 12 hour day/night cycle. […] Each artery was clamped for 5 minutes with aneurysm clips to produce global brain ischemia. The anesthesia was discontinued upon clamping. After 5 minutes the clamps were removed and the wound closed with skin clips.
For treatment, the test compound or vehicle were injected intra-peritoneally (ip) in a volume of 50 microliters of solvent per 10 g body weight. The first injection was given two minutes after clamp removal, and thereafter daily for the next 2 post-operative days (total of 3 injections).
Seven groups each of 4-8 animals were compared:
V. Ischemia—Test compound treated, one sub-group per concentration tested,
VI. Ischemia and pentobarbital (40 mg/kg) as positive control).
Analysis of neuronal damage was performed 14 days post-ischemia by counting pyramidal neurons throughout the CA1 layer of the anterior hippocampus in […] thick (paraffin) coronal brain sections stained with hematoxylin and erosin.
Percent Protection values represent the fraction of hippocampi protected from ischemia in a group of animals treated with the stated dose of compound.

[5] = 50 mg/kg ip one hour prior to hypoxia
[6] = 100 mg/kg ip one hour prior to hypoxia

MICE MES ED50 (mice [1]): <100 mg/kg
Structure (SMILES): NC(=O)CNC1CCCc2ccccc21 (racemic) [Compound 4, (rac)-N-(2-Acetamido)-1-aminotetralin]

melting point: 118 to 120 °C
Structure (SMILES): CC(C)(C)OC(=O)NCCCC(=O)NC1CCc2ccccc21 (racemic) [Compound 6, (rac)-N-(N-Boc-4-aminobutyryl)-1-aminoindan]

melting point: 105 °C
Structure (SMILES): O=CNC1CCc2ccccc21 (racemic) [Compound 8, (rac)-N-Formyl-1-aminoindan]

melting point: 84 to 85 °C
Structure (SMILES): CCCC(=O)NC1CCc2ccccc21 (racemic) [Compound 11, (rac)-N-Butyryl-1-aminoindan]

melting point: 166 to 167 °C
Structure (SMILES): CC(=O)NC1CCc2cccc(C)c21 (racemic) [Compound 20, (rac)-7-Methyl-N-acetyl-1-aminoindan]

melting point: 131 to 132 °C
Structure (SMILES): COc1ccc2c(c1)C(NC(C)=O)CC2 (racemic) [Compound 26, (rac) 6-methoxy-N-acetyl-1-aminoindan]

melting point: 140 to 142 °C
Structure (SMILES): O=C(NC1CCc2ccccc21)c1ccccc1 (racemic) [Compound 46, (rac)-N-Benzoyl-1-aminoindan]

melting point: 140 °C
Structure (SMILES): COc1cccc(C(=O)NC2CCc3ccccc32)c1 (racemic) [Compound 52, (rac)-N-(m-Anisoyl)-1-aminoindan]

melting point: 109 to 110 °C
Structure (SMILES): O=C(NC1CCc2ccccc21)c1ccc(F)cc1 (racemic) [Compound 53, (rac)-N-(4′-Fluorobenzoyl)-1-aminoindan]

melting point: 140 °C
Structure (SMILES): Cc1ccc(C(=O)NC2CCc3ccccc32)cc1 (racemic) [Compound 54, (rac)-N-(p-Toluoyl)-1-aminoindan]

melting point: 175 to 176 °C
Structure (SMILES): CC(=O)NC1CCc2ccc(C#N)cc21 (racemic) [Compound 61, (rac)-6-Cyano-N-acetyl-1-aminoindan]

melting point: 146 to 147 °C
Structure (SMILES): CCOC(=O)c1ccc2c(c1)C(NC(C)=O)CC2 (racemic) [Compound 63, (rac)-6-Ethoxycarbonyl-N-acetyl-1-aminoindan]

melting point: 124 to 125 °C
Structure (SMILES): CCCN(CCC)S(=O)(=O)c1ccc(C(=O)NC2CCc3ccccc32)cc1 (racemic) [Compound 69, (rac)-N-(4-(di-n-Propylsulfamoyl)benzoyl)-1-aminoindan]

melting point: 175 °C
Structure (SMILES): COc1ccc2c(c1OC)CC[C@H]2NC(C)=O [Compound 21, (R)-4,5-Dimethoxy-N-acetyl-1-aminoindan]

melting point: 133 to 134 °C
Structure (SMILES): CCCC(CCC)C(=O)NC1CCc2ccccc21 (stereo not drawn) [Compound 47, N-(2-n-Propylpentanoyl)-1-aminoindan]

melting point: 179 °C
Structure (SMILES): CC(=O)NC1CCc2ccc([N+](=O)[O-])cc21 (stereo not drawn) [Compound 58, N-Acetyl-6-nitro-1-aminoindan]

melting point: 152 to 153 °C
Structure (SMILES): O=C(N[C@@H]1CCc2ccccc21)C(F)(F)F [Compound 68, (R)-N-Trifluoroacetyl-1-aminoindan]

melting point: 227 °C
Structure (SMILES): O=C(CCCCC(=O)NC1CCc2ccccc21)NC1CCc2ccccc21 (stereo not drawn) [Compound 73, N,N′-Bis-(1-indanyl)adipamide]

melting point: 244 to 247 °C
Structure (SMILES): O=C(CCCCC(=O)N[C@@H]1CCc2ccccc21)N[C@@H]1CCc2ccccc21 [Compound 74, N,N′-Bis-((R)-1-indanyl)adipamide]

melting point: 266 to 269 °C
Structure (SMILES): O=C(CCC(=O)N[C@@H]1CCc2ccccc21)N[C@@H]1CCc2ccccc21 [Compound 75, N,N′-Bis-((R)-1-indanyl)succinamide]

More lines, now with the values behind:

Structure (SMILES): CN(C)C1CCc2ccccc21 (racemic) [Compound 15, (rac)-N,N-Dimethyl-1-aminoindan.HCl]
RATS TD50 (rats [2]): >50 mg/kg | MICE TD50 (mice [3]): <100 mg/kg | RATS MES 50 (rats [4]): 50 mg/kg

Structure (SMILES): c1ccc(CNC2CCc3ccccc32)cc1 (racemic) [Compound 16, (rac)-N-Benzyl-1-aminoindan.HCl]
RATS TD50 (rats [2]): >50 mg/kg | MICE MES ED50 (mice [1]): <50 mg/kg | RATS MES 50 (rats [4]): 50 mg/kg

Structure (SMILES): COc1ccc2c(c1)C(N)CC2 (racemic) [Compound 25, (rac)-6-Methoxy-1-aminoindan.HCl]
MICE MES ED50 (mice [1]): <100 mg/kg | MICE TD50 (mice [3]): >100 mg/kg | RATS MES 50 (rats [4]): 50 mg/kg

Structure (SMILES): Cc1cccc2c1C(N)CC2 (racemic) [Compound 28, (rac)-7-Methyl-1-aminoindan.HCl]
RATS TD50 (rats [2]): >50 mg/kg | MICE MES ED50 (mice [1]): <100 mg/kg | MICE TD50 (mice [3]): <100 mg/kg | PROTECTION % OF RESPECTIVE CONTROL (male ICR albino mice; [5]): 361 ± 106% | PROTECTION % OF RESPECTIVE CONTROL (male ICR albino mice; [6]): 941 ± 34% | RATS MES 50 (rats [4]): <50 mg/kg

Structure (SMILES): COc1ccc2c(c1OC)CCC2N (racemic) [Compound 31, (rac)-4,5-Dimethoxy-1-aminoindan.HCl]
RATS TD50 (rats [2]): >50 mg/kg | activity in the MES model in mice, in words (mice [1]): showed activity | MICE MES ED50 (mice [1]): <100 mg/kg | MICE TD50 (mice [3]): <100 mg/kg

Structure (SMILES): NC1CCc2ccc(O)cc21 (racemic) [Compound 34, (rac)-6-Hydroxy-1-aminoindan.HCl]
activity in the MES model in mice, in words (mice [1]): showed activity | MICE MES ED50 (mice [1]): <300 mg/kg | MICE TD50 (mice [3]): >300 mg/kg

Structure (SMILES): Cc1ccc2c(c1)CCC2N (racemic) [Compound 38, (rac)-5-Methyl-1-aminoindan.HCl]
RATS TD50 (rats [2]): >50 mg/kg | MICE MES ED50 (mice [1]): <100 mg/kg | MICE TD50 (mice [3]): <100 mg/kg | RATS MES 50 (rats [4]): 50 mg/kg

Structure (SMILES): C[C@@H]1Cc2ccccc2[C@H]1N (racemic) [Compound 39, (rac)-trans-2-Methyl-1-aminoindan.HCl]
RATS TD50 (rats [2]): >50 mg/kg | MICE MES ED50 (mice [1]): <100 mg/kg | MICE TD50 (mice [3]): <100 mg/kg | PROTECTION % OF RESPECTIVE CONTROL (male ICR albino mice; [5]): 600 ± 213% | PROTECTION % OF RESPECTIVE CONTROL (male ICR albino mice; [6]): 798 ± 249% | RATS MES 50 (rats [4]): <50 mg/kg

Structure (SMILES): C[C@H]1Cc2ccccc2[C@H]1N (racemic) [Compound 40, (rac)-cis-2-Methyl-1-aminoindan.HCl]
RATS TD50 (rats [2]): >50 mg/kg | MICE MES ED50 (mice [1]): <100 mg/kg | MICE TD50 (mice [3]): <100 mg/kg | PROTECTION % OF RESPECTIVE CONTROL (male ICR albino mice; [5]): 374 ± 190% | PROTECTION % OF RESPECTIVE CONTROL (male ICR albino mice; [6]): 569 ± 173% | RATS MES 50 (rats [4]): <50 mg/kg

Structure (SMILES): Cc1cc(C)c2c(c1)C(C)CC2N.Cl (racemic) [Compound 41, (rac)-3,5,7-Trimethyl-1-aminoindan.HCl]
PROTECTION % OF RESPECTIVE CONTROL (male ICR albino mice; [5]): 187 ± 41% | PROTECTION % OF RESPECTIVE CONTROL (male ICR albino mice; [6]): 644 ± 316%

Structure (SMILES): NC1CCc2cccc(O)c21 (racemic) [Compound 42, (rac)-7-Hydroxy-1-aminoindan.HCl]
RATS TD50 (rats [2]): >50 mg/kg | PROTECTION % OF RESPECTIVE CONTROL (male ICR albino mice; [5]): 179 ± 170% | PROTECTION % OF RESPECTIVE CONTROL (male ICR albino mice; [6]): 228 ± 119% | RATS MES 50 (rats [4]): <50 mg/kg

Structure (SMILES): c1ccc2c(c1)CCC2NC1CCc2ccccc21 (racemic) [Compound 43, (rac)-N,N-Di-(1-indanyl)amine.HCl]
RATS TD50 (rats [2]): >50 mg/kg | MICE MES ED50 (mice [1]): <100 mg/kg | MICE TD50 (mice [3]): <100 mg/kg | RATS MES 50 (rats [4]): <50 mg/kg

Structure (SMILES): N[C@H]1CCc2ccccc21 [C, (S)-1-aminoindan]
PERCENT PROTECTION (mongolian gerbils; 0.1 mg/kg ip): 0% | PERCENT PROTECTION (mongolian gerbils; 1.0 mg/kg ip): 50.0%

Structure (SMILES): CC(=O)N[C@H]1CCc2ccccc21 [Compound 19, (S)-N-Acetyl-1-aminoindan]
PERCENT PROTECTION (mongolian gerbils; 1.0 mg/kg ip): 0%

Structure (SMILES): NC1Cc2ccccc21 (stereo not drawn) [Compound 27, 1-Aminobenzocyclobutene.HCl]
RATS TD50 (rats [2]): >50 mg/kg | MICE MES ED50 (mice [1]): <100 mg/kg | MICE TD50 (mice [3]): >100 mg/kg | RATS MES 50 (rats [4]): <50 mg/kg

Structure (SMILES): COc1ccc2c(c1OC)CC[C@@H]2N.Cl [Compound 30, (S)-4,5-Dimethoxy-1-aminoindan.HCl]
PROTECTION % OF RESPECTIVE CONTROL (male ICR albino mice; [5]): 265 ± 284% | PROTECTION % OF RESPECTIVE CONTROL (male ICR albino mice; [6]): 379 ± 202%

Structure (SMILES): C#CCN[C@H]1CCc2ccccc21.Cl [G, (S)-N-propargyl-1-aminoindan HCl salt]
RATS MES 50 (rats [4]): 57 mg/kg

Structure (SMILES): NC1CCc2ccc(F)cc21 (stereo not drawn) [I, 6-fluoro-1-aminoindan]
RATS MES 50 (rats [4]): <50 mg/kg

Structure (SMILES): N[C@H]1CCc2ccc(F)cc21 [K, (S)-6-fluoro-1-aminoindan]
activity in the MES model in mice, in words (mice [1]): showed activity

Structure (SMILES): C#CCNC1CCc2ccc(F)cc21 (stereo not drawn) [L, 6-fluoro-N-propargyl-1-aminoindan]
activity in the MES model in mice, in words (mice [1]): showed activity
